Columns and labels:
ADDP Cis Res Ovarian = assay: MTT cytotoxicity ADDP; assay type: cell-based; details: read-out: GI50 Concentration That Inhibits Cell Growth by 50%, 72 h
Method: (§1) Cytotoxicity assay studies were performed at Calvary Mater Newcastle Hospital, Waratah, NSW, Australia. In vitro studies were performed according to described methods. Complexes were prepared in DMSO as stock treatment (30 mM) solutions and stored at −20 °C. All cell lines were cultured in a humidified atmosphere with 5% CO2 at 37 °C and maintained in Dulbecco’s modified eagle’s medium (DMEM; Trace Biosciences, Melbourne, Australia) supplemented with 10% foetal bovine serum, sodium bicarbonate (10 mM), penicillin (100 IU mL^−1), streptomycin (100 μg mL^−1), and L-glutamine (4 mM). The non-cancer MCF10A cell line was cultured in DMEM.F12 (1:1) cell culture media (Composition in SI). Cytotoxicity was determined by plating cells in duplicate in 100 μL medium at a density of 2500–4000 cells per well in 96-well plates. After 24 h, when cells were in logarithmic growth, media (100 μL) with or without the test agent were added to each well (day 0). After 72 h of exposure, growth inhibitory effects were evaluated by MTT (3-[4,5-dimethylthiazol-2-yl]-2,5-diphenyltetrazolium bromide) assay, and absorbance was read at 540 nm. […] These calculations were based on the difference between the optical density values on day 0 and those at the end of drug exposure.

SJ-G2 Glioblastoma = assay: MTT cytotoxicity SJ-G2; assay type: cell-based; details: read-out: GI50 Concentration That Inhibits Cell Growth by 50%, 72 h
Method: as §1

HT29 Colon = assay: MTT cytotoxicity HT29; assay type: cell-based; details: read-out: GI50 Concentration That Inhibits Cell Growth by 50%, 72 h
Method: as §1

Du145 Prostate = assay: MTT cytotoxicity Du145; assay type: cell-based; details: read-out: GI50 Concentration That Inhibits Cell Growth by 50%, 72 h
Method: as §1

calf thymus DNA (ctDNA) [1] = assay: Fluorescent intercalator displacement (FID) assay, EtBr-saturated ctDNA; assay type: binding; set-up: Kq (bimolecular quenching constant) / KSV (Stern–Volmer quenching constant): unit not given here; details: buffer pH 7.0
Method: To investigate the potential mechanisms of action of complexes 1–3, fluorescent intercalator displacement (FID) experiments and DNA binding experiments utilizing the innate fluorescence were undertaken. For FID experiments, the concentration of a fluorescent intercalator, in this case ethidium bromide (EtBr), that is displaced by the complex under investigation is determined. In a solution of calf-thymus DNA (ctDNA) where is saturated with EtBr, the change in fluorescence is monitored as the complex is titrated into this solution. Once the decrease in fluorescence has stopped, the concentration of the complex allows us to calculate the stoichiometric point of binding, the change in fluorescence at the point of binding (ΔFsat), the binding coefficient (Ka), bimolecular quenching constant (Kq), Stern–Volmer quenching constant (Ksv), the binding constant for fluorescence (KF), and the molar equivalents of CMC (n) at the point of intersection is the experimental stoichiometry of binding. (1) [ctDNA]Tn−∆Fx/∆Fsat=[CMC] (2) ∆Fx/∆Fsat1/n=fraction of ctDNA−CMC complex (3) 1−∆Fx/∆Fsat1/n=fraction free CMC
The fluorescence at 601 nm for each titration was plotted, and the KF and n could be calculated from the intercept and slope, respectively. (4) F0/F=1+Kqτ0CMC=1+KSV[CMC] where F0 is the fluorescence of the binding site in the absence of quencher (CMC), F is the fluorescence of the site containing the CMC, and t0 is the lifetime of the chromophore in the absence of the quencher (Ɛ476 = 5680 for ethidium-bound DNA).
A plot of F0/F against [CMC] using experimental values allows for the determination of Kq and KSV from the slope. (5) log10F0−F/F=nlog10CMC+log10KF where n is the number of ethidium ligands that are displaced per CMC. […] A plot of log10[(F0 − F)/F)] against log10[CMC] is used to determine KF and n from the intercept and slope, respectively. Experiments were performed in triplicate for each CMC.
Fluorescent intercalator displacement (FID) assays were obtained using the same instrument and by using 10 mm quartz cells. Stock solutions CMCs 1–3 (30 µM) were titrated into a solution of […] ethidium bromide, 150 µM ctDNA in a 40 mM K2HPO4/KH2PO, and 10 mM KCl buffer at pH 7.0. The fluorescence was measured from 550 to 750 nm excited at 480 nm and inverting 4 times and waiting 3 min between the addition of ctDNA and scan time to allow adequate time for the CMCs to interact with the DNA.

H460 Lung = assay: MTT cytotoxicity H460; assay type: cell-based; details: read-out: GI50 Concentration That Inhibits Cell Growth by 50%, 72 h
Method: as §1

MCF10A Breast (normal) = assay: MTT cytotoxicity MCF10A (non-cancer); assay type: cell-based; details: read-out: GI50 Concentration That Inhibits Cell Growth by 50%, 72 h
Method: as §1

A2780 Ovarian = assay: MTT cytotoxicity A2780; assay type: cell-based; details: read-out: GI50 Concentration That Inhibits Cell Growth by 50%, 72 h
Method: as §1

BE2-C Neuroblastoma = assay: MTT cytotoxicity BE2-C; assay type: cell-based; details: read-out: GI50 Concentration That Inhibits Cell Growth by 50%, 72 h
Method: as §1

U87 Glioblastoma = assay: MTT cytotoxicity U87; assay type: cell-based; details: read-out: GI50 Concentration That Inhibits Cell Growth by 50%, 72 h
Method: as §1

calf thymus DNA (ctDNA) [2] = assay: Direct ctDNA binding by inherent fluorescence (Benesi–Hildebrand); details: inherent fluorescence method, 10 µM CMC, buffer pH 7.0
Method: ctDNA experiments utilising the inherent fluorescence of the complexes were completed in addition to the FID experiments. […] The values of Ka and n for the compounds are listed in Table 4, where R^2 is the linear correlation coefficient for Ka.
The direct fluorescent measurements of DNA binding constants were also obtained with the same fluorimeter using 10 mm path length quartz cells. A 0.065 M stock solution of ctDNA was titrated into a 10 µM solution of CMCs 1–3 in a 40 mM K2HPO4/KH2PO, 10 mM KCl buffer at pH 7.0. The fluorescence was measured from 550 to 750 nm excited at 320 nm inverting 4 times and waiting 3 min between the addition of ctDNA and scan time to allow adequate time for the CMCs to interact with the DNA.

A431 Skin = assay: MTT cytotoxicity A431; assay type: cell-based; details: read-out: GI50 Concentration That Inhibits Cell Growth by 50%, 72 h
Method: as §1

MIA Pancreas = assay: MTT cytotoxicity MIA; assay type: cell-based; details: read-out: GI50 Concentration That Inhibits Cell Growth by 50%, 72 h
Method: as §1

MCF-7 Breast = assay: MTT cytotoxicity MCF-7; assay type: cell-based; details: for GI50: read-out: GI50 Concentration That Inhibits Cell Growth by 50%, MCF-7 Breast, 72 h, MTT
Method: as §1

[3] = Lipophilicity by RP-HPLC (log Kw); assay type: physicochemical; details: isocratic 70 to 90% solvent B
Method: Lipophilicity was calculated using a RP-HPLC method to determine log Kw, whereby a stock solution was injected at different isocratic ratios ranging from 70 to 90% solvent B (organic) at a flow rate of 1 mL min^−1. These experiments were undertaken on an Agilent Technologies 1260 Infinity machine equipped with a Phenomenex Onyx™ Monolithic C18 reverse phase column (100 × 4.6 mm, 130 Å). The mobile phase comprised 0.06% TFA in water (solvent A) and 0.06% TFA in ACN:H2O (90:10, solvent B). The dead zero volume time was determined using potassium iodide as an external dead volume marker, further details are provided in the Supplementary Materials.

Compound	GI50 (ADDP Cis Res Ovarian) [µM]	GI50 (SJ-G2 Glioblastoma) [µM]	GI50 (HT29 Colon) [µM]	GI50 (Du145 Prostate) [µM]	KSV (Stern–Volmer quenching constant) (calf thymus DNA (ctDNA) [1])	Ka (binding coefficient) (calf thymus DNA (ctDNA) [1])	Kf (binding constant for fluorescence) (calf thymus DNA (ctDNA) [1])	Kq (bimolecular quenching constant) (calf thymus DNA (ctDNA) [1])	Point of Experimental Stoichiometry of Binding (calf thymus DNA (ctDNA) [1])	n (number of ethidium ligands displaced per CMC) (calf thymus DNA (ctDNA) [1])	ΔFsat (change in fluorescence at the point of binding) (calf thymus DNA (ctDNA) [1])	GI50 (H460 Lung) [µM]	GI50 (MCF10A Breast (normal)) [µM]	GI50 (A2780 Ovarian) [µM]	GI50 (BE2-C Neuroblastoma) [µM]	GI50 (U87 Glioblastoma) [µM]	Ka (binding constant) (calf thymus DNA (ctDNA) [2])	GI50 (A431 Skin) [µM]	GI50 (MIA Pancreas) [µM]	GI50 (MCF-7 Breast) [µM]	further results
[Pt(Pepy)(SSDACH)]+ [Complex 1a]	5.1 ± 0.3	11 ± 0.7	13 ± 1	9 ± 2	1.988	2.75 × 10^4	4.35	0.329	2.84	0.778	83.82	5.8 ± 0.4	6.4 ± 0.5	12 ± 0.7	34 ± 7.5	5.3 ± 0.3	2.20 × 10^4	4.2 ± 0.5	8 ± 1.6	8.4 ± 2	SI = GI50 for normal cells/GI50 for cancer cells (MCF10A/MCF-7) (MCF-7 Breast): 0.76
[Pt(Bequ)(RRDACH)]+ [Complex 2b]	19 ± 3	10 ± 2.2	30 ± 2.3	20 ± 2.7	1.662	1.59 × 10^4	3.78	0.271	2.47	0.668	89.01	8.1 ± 1	10.3 ± 1.9	5 ± 0.3	48 ± 1.7	4.3 ± 0.3	1.39 × 10^4	3.4 ± 0.3	8.1 ± 1.6	7.7 ± 2	Lipophilicity × 10^−2 (log Kw) [3]: 3.97 ± 0.053 × 10^−2; SI = GI50 for normal cells/GI50 for cancer cells (MCF10A/MCF-7) (MCF-7 Breast): 1.33
[Pt(Bequ)( SSDACH)]+ [Complex 2a]	14 ± 0.3	13 ± 2.2	16 ± 1.3	26 ± 2	1.339	1.58 × 10^4	3.25	0.241	2.52	0.592	89.29	11 ± 1.5	20 ± 1	18 ± 2.3	23 ± 3.5	8.6 ± 1.1	1.11 × 10^4	12 ± 2.4	20 ± 3	5.4 ± 1	Lipophilicity × 10^−2 (log Kw) [3]: 2.06 ± 0.097 × 10^−2
[Pt(Pepy)(RRDACH)]+ [Complex 1b]	26 ± 0.6	20 ± 4.8	41 ± 2.7	41 ± 0.9	1.957	1.58 × 10^4	4.23	0.328	2.65	0.757	86.38	25 ± 2.9	32 ± 2.7	31 ± 2.9	38 ± 4.6	23 ± 2.2	1.46 × 10^4	29 ± 2.6	41 ± 2	13 ± 1.7	Lipophilicity × 10^−2 (log Kw) [3]: 1.52 ± 0.063 × 10^−2
N.N.[Cl][Pt][Cl] [Cisplatin, cisplatin, reference compound]	–	0.4 ± 0.1	11.3 ± 1.9	1.2 ± 0.1	–	–	–	–	–	–	–	0.9 ± 0.2	–	1 ± 0.1	1.9 ± 0.2	3.8 ± 1.1	–	2.4 ± 0.3	7.5 ± 1.3	6.5 ± 0.8	–
Cc1c(C)c2cccnc2c2ncccc12.N[C@H]1CCCC[C@@H]1N.[Pt] [Complex 56MESS, reference compound]	–	0.074 ± 0.018	–	0.007 ± 0.002	–	–	–	–	–	–	–	0.037 ± 0.009	0.032 ± 0.007	0.03 ± 0.004	0.1 ± 0.016	0.076 ± 0.014	–	0.051 ± 0.021	0.015 ± 0.002	0.05 ± 0.02	SI = GI50 for normal cells/GI50 for cancer cells (MCF10A/MCF-7) (MCF-7 Breast): 0.64

— paper PMC10178562, “Synthesis and Characterisation of Fluorescent Novel Pt(II) Cyclometallated Complexes with Anticancer Activity” (International Journal of Molecular Sciences, 2023)
